Source: US8686075B2, “Polysulfone compositions and methods for the manufacture and use thereof” (SABIC Innovative Plastics IP B.V., priority 2011, dated 2014)

Tests used:
[1] = target: recombinant human estradiol receptors (rhER) beta 1 (β1) (Homo sapiens, UniProt Q92731); experiment: competitive binding assay, displacement of [3H] estradiol radioligand from rhER beta 1; conditions: tested up to 2.5×E-4 M
[2] = target: T1, recombinant human estradiol receptors (rhER) alpha (α) (Homo sapiens, UniProt P03372); experiment: competitive binding assay, displacement of [3H] estradiol radioligand from rhER alpha; conditions: text statements, tested up to 2.5×E-4 M
T1 sequence (P03372 1-595): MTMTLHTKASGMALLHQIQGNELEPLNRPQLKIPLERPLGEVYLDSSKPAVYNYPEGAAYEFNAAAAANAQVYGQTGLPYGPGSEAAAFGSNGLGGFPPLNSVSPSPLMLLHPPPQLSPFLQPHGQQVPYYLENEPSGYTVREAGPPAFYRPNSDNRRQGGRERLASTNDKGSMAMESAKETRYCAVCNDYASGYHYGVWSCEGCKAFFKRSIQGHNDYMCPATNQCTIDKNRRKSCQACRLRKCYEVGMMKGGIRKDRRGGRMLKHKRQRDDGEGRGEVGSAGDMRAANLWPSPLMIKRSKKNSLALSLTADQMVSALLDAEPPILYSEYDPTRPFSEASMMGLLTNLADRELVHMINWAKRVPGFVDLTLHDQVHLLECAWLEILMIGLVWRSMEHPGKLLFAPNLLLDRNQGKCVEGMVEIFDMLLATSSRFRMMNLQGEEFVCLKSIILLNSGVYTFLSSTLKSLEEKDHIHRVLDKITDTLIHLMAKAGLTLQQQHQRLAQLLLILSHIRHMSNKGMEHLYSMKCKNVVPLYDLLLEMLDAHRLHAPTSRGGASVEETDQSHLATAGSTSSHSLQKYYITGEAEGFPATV

Row | Compound | estradiol binding / displacement at the beta estradiol receptor (in words) ([1]; text statements) | estradiol binding / displacement at the alpha estradiol receptor (in words) [2] | other results
1 | Cc1cc(O)ccc1O [Example 8, Methyl Hydroquinone] | no alpha or beta estradiol displacement |  | estradiol binding / displacement at the beta estradiol receptor (in words) ([1]; text statements, listed as methyl hydroquinone): no estradiol binding
2 | Tetra Methyl BPA [Example 1] | no detectible estradiol displacement |  | estradiol binding / displacement at the beta estradiol receptor (in words) ([1]; listed as tetra methyl bisphenol-A): no estradiol binding
3 | O=C1c2ccccc2C(c2ccc(O)cc2)(c2ccc(O)cc2)N1c1ccccc1 [Example 3, N-Phenyl Phenolphthalein Bisphenol] | no detectible estradiol displacement | no detectible estradiol displacement | estradiol binding / displacement at the alpha estradiol receptor (in words) ([2]; listed as N-phenyl phenolphthalein bisphenol): no estradiol binding; estradiol binding / displacement at the beta estradiol receptor (in words) ([1]; text statements, listed as N-phenyl phenolphthalein bisphenol): no estradiol binding
4 | Dihydroxy Diphenyl Ether [Example C, reference compound] | displace estradiol at low concentrations |  | 
5 | Diphenolic Acid Methyl Ester [F, reference compound] | displace estradiol at low concentrations | displace estradiol at low concentrations | 
6 | CC(C)(c1ccc(O)cc1)c1cccc(C(C)(C)c2ccc(O)cc2)c1 [K, Bisphenol M, reference compound] | displace estradiol at low concentrations | displace estradiol at low concentrations | 
7 | Bis Hydroxy Phenyl Menthane [reference compound] | displace estradiol at low concentrations | displace estradiol at low concentrations | 
8 | Fluorenone Bis-o-Cresol [reference compound] | displace estradiol at low concentrations |  | 
9 | Oc1cccc(O)c1 [Example 4, Resorcinol] | no detectible estradiol displacement | no detectible estradiol displacement | estradiol binding / displacement at the alpha estradiol receptor (in words) ([2]; listed as resorcinol): no estradiol binding; estradiol binding / displacement at the beta estradiol receptor (in words) ([1]; text statements, listed as resorcinol): no estradiol binding
10 | Bisphenol Acetophenone [D, reference compound] |  | displace estradiol at low concentrations | 
11 | Cc1cc(C2(c3ccc(O)c(C)c3)CCCCC2)ccc1O [G, Dimethyl Cyclohexyl Bisphenol, reference compound] | displace estradiol at low concentrations | displace estradiol at low concentrations | 
12 | CC(C)(c1ccccc1)c1ccc(O)cc1 [B, p-Cumyl Phenol, reference compound] | displace estradiol at low concentrations | displace estradiol at low concentrations | 
13 | O=C1OC(c2ccc(O)cc2)(c2ccc(O)cc2)c2ccccc21 [O, Phenolphthalein, reference compound] | estradiol displacement at low concentration |  | 
14 | Biphenol [Example 6] | no estradiol binding | no displacement of the estradiol | estradiol binding / displacement at the alpha estradiol receptor (in words) ([2]; listed as biphenol): no estradiol binding
